# Source: ChEMBL document CHEMBL1147535, “Biaryl amide glucagon receptor antagonists” (Bioorg Med Chem Lett, 2004)
# Legend:
# Glucagon receptor = Glucagon receptor (Homo sapiens, UniProt P47871); assay: In vitro binding affinity against human glucagon receptor (h-GlucR) was determined
# Adenylate cyclase [1] = assay: In vitro inhibitory activity against glucagon induced human adenylate cyclase; assay type: protein assay
# Rattus norvegicus = assay: Percent reduction of glucagon induced glucose excursion by the compound after an i.v. dose of 50 mg/kg to rats; assay type: functional; details: route intravenous
# [2] = Oral bioavailability; assay type: ADME, organism-based; details: eutheria, in vivo
# Adenylate cyclase [3] = assay: In vitro inhibitory activity against glucagon induced monkey adenylate cyclase; assay type: protein assay, Cercopithecidae
# Glucagon receptor, sequence (P47871 whole entry): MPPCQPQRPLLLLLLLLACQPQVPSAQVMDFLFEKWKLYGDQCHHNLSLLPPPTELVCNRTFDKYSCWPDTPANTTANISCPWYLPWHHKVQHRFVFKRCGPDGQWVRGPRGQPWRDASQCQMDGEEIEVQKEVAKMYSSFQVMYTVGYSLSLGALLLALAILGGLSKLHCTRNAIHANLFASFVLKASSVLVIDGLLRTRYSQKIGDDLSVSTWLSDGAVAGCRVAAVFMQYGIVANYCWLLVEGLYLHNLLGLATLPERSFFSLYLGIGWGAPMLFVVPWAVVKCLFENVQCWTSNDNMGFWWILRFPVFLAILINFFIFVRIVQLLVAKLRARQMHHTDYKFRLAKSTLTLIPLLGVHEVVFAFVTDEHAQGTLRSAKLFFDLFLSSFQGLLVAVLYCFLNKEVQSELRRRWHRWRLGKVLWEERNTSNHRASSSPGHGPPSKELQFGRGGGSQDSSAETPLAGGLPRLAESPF
smiles,measurement,setting,value
CC(C)(C)c1ccc(C(Cc2ccc(C(=O)NCCC(=O)O)cc2)C(=O)Nc2cnc3ccccc3c2)cc1 (stereo not given),Ki,Glucagon receptor,11 nM
same,Ki,Adenylate cyclase [1],610 nM
CCc1ccc(NC(=O)C(Cc2ccc(C(=O)NCCC(=O)O)cc2)c2ccc(C(C)(C)C)cc2)cc1 (stereo not given),Ki,Glucagon receptor,26 nM
same,Ki,Adenylate cyclase [1],> 2000 nM
CC(C)(C)c1ccc(C(Cc2ccc(C(=O)NCCC(=O)O)cc2)C(=O)Nc2ccc(N3CCCCC3)cc2)cc1 (stereo not given),Ki,Glucagon receptor,73 nM
same,Ki,Adenylate cyclase [1],> 2000 nM
CCN1CCN(C(=O)C(Cc2ccc(C(=O)NCCC(=O)O)cc2)c2ccc(C(C)(C)C)cc2)CC1 (stereo not given),Ki,Glucagon receptor,> 5000 nM
same,Ki,Adenylate cyclase [1],> 2000 nM
CC(C)(C)c1ccc(C(Cc2ccc(C(=O)NCCC(=O)O)cc2)C(=O)Nc2ccc(OC(F)(F)F)cc2)cc1 (stereo not given),Ki,Glucagon receptor,51 nM
same,Ki,Adenylate cyclase [1],110 nM
CCCCCCC(Oc1ccc(C(=O)NCCC(=O)O)cc1)C(=O)Nc1ccc(-c2cc3ccccc3o2)cc1 (stereo not given),Ki,Glucagon receptor,3 nM
same,Ki,Adenylate cyclase [1],17 nM
CC(C)(C)c1ccc(C(Cc2ccc(C(=O)NCCC(=O)O)cc2)C(=O)Nc2ccc(COC(F)(F)F)cc2)cc1 (stereo not given),Ki,Glucagon receptor,5000 nM
same,Ki,Adenylate cyclase [1],> 2000 nM
CCCCCCC(Oc1ccc(C(=O)NCCC(=O)O)cc1)C(=O)Nc1ccc(-c2ccc(Cl)cc2Cl)cc1 (stereo not given),Ki,Glucagon receptor,6 nM
same,Ki,Adenylate cyclase [1],14 nM
CC(C)(C)c1ccc(C(Cc2ccc(C(=O)NCCC(=O)O)cc2)C(=O)Nc2ccc(CO)cc2)cc1 (stereo not given),Ki,Glucagon receptor,29 nM
same,Ki,Adenylate cyclase [1],1000 nM
CC(C)(C)c1ccc(C(Cc2ccc(C(=O)NCCC(=O)O)cc2)C(=O)Nc2ccc(-c3cc4ccccc4o3)cc2)cc1 (stereo not given),Ki,Glucagon receptor,4 nM
same,Ki,Adenylate cyclase [1],29 nM
same,Reduction,Rattus norvegicus,50%
same,bioavailability,[2],< 5%
same,Ki,Adenylate cyclase [3],69 nM
CC(C)(C)c1ccc(C(Oc2ccc(C(=O)NCCC(=O)O)cc2)C(=O)Nc2ccc(-c3ccccc3)cc2)cc1 (stereo not given),Ki,Glucagon receptor,9 nM
same,Ki,Adenylate cyclase [1],144 nM
Cc1ccc(N2CCN(C(=O)C(Cc3ccc(C(=O)NCCC(=O)O)cc3)c3ccc(C(C)(C)C)cc3)CC2)cc1 (stereo not given),Ki,Glucagon receptor,400 nM
same,Ki,Adenylate cyclase [1],> 2000 nM
CC(C)(C)c1ccc(C(Cc2ccc(C(=O)NCCC(=O)O)cc2)C(=O)Nc2ccc(-c3ccc(Cl)cc3Cl)cc2)cc1 (stereo not given),Ki,Glucagon receptor,6 nM
same,Ki,Adenylate cyclase [1],33 nM
CC(C)(C)c1ccc(C(Cc2ccc(C(=O)NCCC(=O)O)cc2)C(=O)Nc2ccc(-n3cccn3)cc2)cc1 (stereo not given),Ki,Glucagon receptor,70 nM
same,Ki,Adenylate cyclase [1],> 2000 nM
CC(C)(C)c1ccc(C(Oc2ccc(C(=O)NCC(F)C(=O)O)cc2)C(=O)Nc2ccc(-c3ccccc3)cc2)cc1 (stereo not given),Ki,Glucagon receptor,26 nM
same,Ki,Adenylate cyclase [1],> 2000 nM
CC(C)(C)c1ccc(C(Cc2ccc(C(=O)NCCC(=O)O)cc2)C(=O)Nc2ccc(-c3ccccc3)cc2)cc1 (stereo not given),Ki,Glucagon receptor,11 nM
same,Ki,Adenylate cyclase [1],300 nM
CC(C)(C)c1ccc(C(Oc2ccc(C(=O)Nc3nn[nH]n3)cc2)C(=O)Nc2ccc(-c3ccccc3)cc2)cc1 (stereo not given),Ki,Glucagon receptor,66 nM
same,Ki,Adenylate cyclase [1],317 nM
CCCCCCC(Cc1ccc(C(=O)NCCC(=O)O)cc1)C(=O)Nc1ccc(-c2cc3ccccc3o2)cc1 (stereo not given),Ki,Glucagon receptor,6 nM
same,Ki,Adenylate cyclase [1],20 nM
CC(C)(C)[C@H]1CC[C@H](N(Cc2ccc(C(=O)NCCC(=O)O)cc2)C(=O)Nc2ccc(OC(F)(F)F)cc2)CC1,Ki,Glucagon receptor,63 nM
same,Ki,Adenylate cyclase [1],254 nM
CCc1cccc(NC(=O)C(Cc2ccc(C(=O)NCCC(=O)O)cc2)c2ccc(C(C)(C)C)cc2)c1 (stereo not given),Ki,Glucagon receptor,80 nM
same,Ki,Adenylate cyclase [1],> 2000 nM
CC(C)(C)c1ccc(C(Oc2ccc(C(=O)NCC(O)C(=O)O)cc2)C(=O)Nc2ccc(-c3ccccc3)cc2)cc1 (stereo not given),Ki,Glucagon receptor,112 nM
same,Ki,Adenylate cyclase [1],> 2000 nM
